Key:
Assay in all cases: increase in dead-cell fraction, 72 h; higher = more death;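 further: breast cancer cell lines in 384-well plates, stained with Hoechst plus LIVE/DEAD far red dye and imaged, cells above an LDR intensity threshold counted dead, Hoechst-negative corpses included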
Rucaparib = compound: CNCc1ccc(-c2[nH]c3cc(F)cc4c3c2CCNC4=O)cc1 [Rucaparib]
Dasatinib = compound: Cc1nc(Nc2ncc(C(=O)Nc3c(C)cccc3Cl)s2)cc(N2CCN(CCO)CC2)n1 [Dasatinib]
Cediranib/AZD2171 = compound: COc1cc2c(Oc3ccc4[nH]c(C)cc4c3F)ncnc2cc1OCCCN1CCCC1 [Cediranib/AZD2171]
AZD5363 = compound: NC1(C(=O)N[C@@H](CCO)c2ccc(Cl)cc2)CCN(c2nc[nH]c3nccc2-3)CC1 [AZD5363]
Everolimus = compound: CO[C@H]1C[C@@H]2CC[C@@H](C)[C@@](O)(O2)C(=O)C(=O)N2CCCC[C@H]2C(=O)O[C@H]([C@H](C)C[C@@H]2CC[C@@H](OCCO)[C@H](OC)C2)CC(=O)[C@H](C)/C=C(\C)[C@@H](O)[C@@H](OC)C(=O)[C@H](C)C[C@H](C)/C=C/C=C/C=C/1C [Everolimus]
Vorinostat = compound: O=C(CCCCCCC(=O)Nc1ccccc1)NO [Vorinostat]
Olaparib/AZD2281 = compound: O=C(c1cc(Cc2n[nH]c(=O)c3ccccc23)ccc1F)N1CCN(C(=O)C2CC2)CC1 [Olaparib/AZD2281]
[1] = compound: CO[C@@H](C)Cn1c(=O)n(C)c2cnc3ccc(-c4cncc(C(C)(C)O)c4)cc3c21
AZD6738 = compound: C[C@@H]1COCCN1c1cc(C2([S@](C)(=N)=O)CC2)nc(-c2cc[nH]c3nccc2-3)n1 [AZD6738]
ABT-737 = compound: CN(C)CC[C@H](CSc1ccccc1)Nc1ccc(S(=O)(=O)NC(=O)c2ccc(N3CCN(Cc4ccccc4-c4ccc(Cl)cc4)CC3)cc2)cc1[N+](=O)[O-] [ABT-737]

Cell Line: AU565
- increase in dead-cell fraction (Rucaparib; 0.001 µM): 0.0051
- increase in dead-cell fraction (Rucaparib; 0.003162 µM): -0.0024
- increase in dead-cell fraction (Rucaparib; 0.01 µM): 0.0015
- increase in dead-cell fraction (Rucaparib; 0.03162 µM): 0.0073
- increase in dead-cell fraction (Rucaparib; 0.1 µM): -0.0049
- increase in dead-cell fraction (Rucaparib; 0.3162 µM): -0.0044
- increase in dead-cell fraction (Rucaparib; 1 µM): -0.0017
- increase in dead-cell fraction (Rucaparib; 3.162 µM): -0.0036
- increase in dead-cell fraction (Rucaparib; 10 µM): -0.0017
- increase in dead-cell fraction (Dasatinib; 0.001 µM): 0.0065
- increase in dead-cell fraction (Dasatinib; 0.003162 µM): 0.0017
- increase in dead-cell fraction (Dasatinib; 0.01 µM): 0.0035
- increase in dead-cell fraction (Dasatinib; 0.03162 µM): -0.0007
- increase in dead-cell fraction (Dasatinib; 0.1 µM): -0.003
- increase in dead-cell fraction (Dasatinib; 0.3162 µM): 0.0019
- increase in dead-cell fraction (Dasatinib; 1 µM): -0.0024
- increase in dead-cell fraction (Dasatinib; 3.162 µM): 0.0091
- increase in dead-cell fraction (Dasatinib; 10 µM): 0.0365
- increase in dead-cell fraction (Cediranib/AZD2171; 0.001 µM): 0.0037
- increase in dead-cell fraction (Cediranib/AZD2171; 0.003162 µM): 0.0046
- increase in dead-cell fraction (Cediranib/AZD2171; 0.01 µM): 0.0016
- increase in dead-cell fraction (Cediranib/AZD2171; 0.03162 µM): 0.0034
- increase in dead-cell fraction (Cediranib/AZD2171; 0.1 µM): -0.0003
- increase in dead-cell fraction (Cediranib/AZD2171; 0.3162 µM): -0.0061
- increase in dead-cell fraction (Cediranib/AZD2171; 1 µM): -0.0046
- increase in dead-cell fraction (Cediranib/AZD2171; 3.162 µM): -0.0048
- increase in dead-cell fraction (Cediranib/AZD2171; 10 µM): 0.0027
- increase in dead-cell fraction (AZD5363; 0.001 µM): -0.0047
- increase in dead-cell fraction (AZD5363; 0.003162 µM): 0.0058
- increase in dead-cell fraction (AZD5363; 0.01 µM): 0.0054
- increase in dead-cell fraction (AZD5363; 0.03162 µM): 0.0087
- increase in dead-cell fraction (AZD5363; 0.1 µM): 0.0196
- increase in dead-cell fraction (AZD5363; 0.3162 µM): -0.0036
- increase in dead-cell fraction (AZD5363; 1 µM): 0.0183
- increase in dead-cell fraction (AZD5363; 3.162 µM): 0.0124
- increase in dead-cell fraction (AZD5363; 10 µM): 0.0512
- increase in dead-cell fraction (Everolimus; 0.001 µM): 0.0191
- increase in dead-cell fraction (Everolimus; 0.003162 µM): 0.0225
- increase in dead-cell fraction (Everolimus; 0.01 µM): 0.0257
- increase in dead-cell fraction (Everolimus; 0.03162 µM): 0.0132
- increase in dead-cell fraction (Everolimus; 0.1 µM): 0.0177
- increase in dead-cell fraction (Everolimus; 0.3162 µM): 0.0133
- increase in dead-cell fraction (Everolimus; 1 µM): 0.011
- increase in dead-cell fraction (Everolimus; 3.162 µM): 0.019
- increase in dead-cell fraction (Everolimus; 10 µM): 0.0283
- increase in dead-cell fraction (Vorinostat; 0.001 µM): -0.0016
- increase in dead-cell fraction (Vorinostat; 0.003162 µM): 0.0067
- increase in dead-cell fraction (Vorinostat; 0.01 µM): 0.0043
- increase in dead-cell fraction (Vorinostat; 0.03162 µM): 0.0012
- increase in dead-cell fraction (Vorinostat; 0.1 µM): 0.0011
- increase in dead-cell fraction (Vorinostat; 0.3162 µM): -0.0009
- increase in dead-cell fraction (Vorinostat; 1 µM): 0.0099
- increase in dead-cell fraction (Vorinostat; 3.162 µM): 0.142
- increase in dead-cell fraction (Vorinostat; 10 µM): 0.241
- increase in dead-cell fraction (Olaparib/AZD2281; 0.001 µM): -0.0007
- increase in dead-cell fraction (Olaparib/AZD2281; 0.003162 µM): -0.0016
- increase in dead-cell fraction (Olaparib/AZD2281; 0.01 µM): 0.0011
- increase in dead-cell fraction (Olaparib/AZD2281; 0.03162 µM): -0.0026
- increase in dead-cell fraction (Olaparib/AZD2281; 0.1 µM): 0.0033
- increase in dead-cell fraction (Olaparib/AZD2281; 0.3162 µM): -0.0012
- increase in dead-cell fraction (Olaparib/AZD2281; 1 µM): -0.006
- increase in dead-cell fraction (Olaparib/AZD2281; 3.162 µM): -0.0026
- increase in dead-cell fraction (Olaparib/AZD2281; 10 µM): 0.0043
- increase in dead-cell fraction ([1]; 0.001 µM): 0.0299
- increase in dead-cell fraction ([1]; 0.003162 µM): 0.0425
- increase in dead-cell fraction ([1]; 0.01 µM): 0.0372
- increase in dead-cell fraction ([1]; 0.03162 µM): 0.0503
- increase in dead-cell fraction ([1]; 0.1 µM): 0.0586
- increase in dead-cell fraction ([1]; 0.3162 µM): 0.0998
- increase in dead-cell fraction ([1]; 1 µM): 0.074
- increase in dead-cell fraction ([1]; 3.162 µM): 0.091
- increase in dead-cell fraction ([1]; 10 µM): 0.511
- increase in dead-cell fraction (AZD6738; 0.001 µM): 0.0013
- increase in dead-cell fraction (AZD6738; 0.003162 µM): 0.0103
- increase in dead-cell fraction (AZD6738; 0.01 µM): -0.0124
- increase in dead-cell fraction (AZD6738; 0.03162 µM): -0.0113
- increase in dead-cell fraction (AZD6738; 0.1 µM): -0.0075
- increase in dead-cell fraction (AZD6738; 0.3162 µM): -0.003
- increase in dead-cell fraction (AZD6738; 1 µM): 0.0064
- increase in dead-cell fraction (AZD6738; 3.162 µM): 0.0079
- increase in dead-cell fraction (AZD6738; 10 µM): 0.0831
- increase in dead-cell fraction (ABT-737; 0.001 µM): 0.0066
- increase in dead-cell fraction (ABT-737; 0.003162 µM): 0.0005
- increase in dead-cell fraction (ABT-737; 0.01 µM): 0.0025
- increase in dead-cell fraction (ABT-737; 0.03162 µM): -0.0006
- increase in dead-cell fraction (ABT-737; 0.1 µM): 0.0014
- increase in dead-cell fraction (ABT-737; 0.3162 µM): 0.0008
- increase in dead-cell fraction (ABT-737; 1 µM): 0.0066
- increase in dead-cell fraction (ABT-737; 3.162 µM): 0.0073
- increase in dead-cell fraction (ABT-737; 10 µM): 0.0507
